Source: patent US20220168309A1 (F-STAR THERAPEUTICS, INC., priority 2019, published 2022)
pIC50: −log10 of the molar value.

target: STING (Homo sapiens, UniProt Q86WV6); assay: STING antagonist activity, cell-based ISG54 promoter-reporter luciferase measurement of IRF activity (THP-1 dual / RAW-ISG cells); settings: Antagonist Activity of Exemplary Compounds; cell line and agonist not given; read-out: IC50
Description: THP-1 dual cells (InvivoGen) were cultured under 5% CO2 at 37° C. in RPMI containing 10% fetal bovine serum (FBS), 100 IU mL-1 penicillin and 100 μg mL-1 streptomycin. RAW-ISG cells (InvivoGen) were cultured under 5% CO2 at 37° C. in DMEM containing 10% fetal bovine serum (FBS), 100 IU mL-1 penicillin and 100 μg mL-1 streptomycin. THP-1 dual cells were seeded into the 96 well assay plate on the day of assay whereas RAW cells were seeded into the 96 well assay plate 18 hours before the assay.
(§1) 50,000 cells seeded in a 96-well flat bottom white assay plate were treated with different concentrations (10 uM to 0.01 uM) of compounds for 1 h followed by STING induction with either 30 nM SB 11285 or 10 ug/mL 2′-3′ cGAMP. The cells were then incubated for 20 hours @ 37° C. in CO2 incubator before measuring IRF activation by using Quanti-Luc (InvivoGen). The % inhibition was calculated as 100−{[(luminescence of COI treated well/luminescence of non-COI treated well)/100]×100}. IC50 was calculated by plotting in Xlfit.
as §1, with “1 μM” for “30 nM”
THP1-Dual-WT cells (InvivoGen) were plated into 96-well flat bottom plate at 5×10^4 cells/140 μL/well in triplicate. Cells were then treated with diluted antagonist compounds at 10 μL/well for 1 h, followed by treatment with compounds or 2′3′-cGAMP/lipo mixture for 18 h. The levels of IRF activity were determined using Quanti-luc (InvivoGen) and calculated against IRF activity in DMSO-treated cells. IC50 and CC50 values were calculated using Xlfit.

Chain of STING (Q86WV6 whole entry): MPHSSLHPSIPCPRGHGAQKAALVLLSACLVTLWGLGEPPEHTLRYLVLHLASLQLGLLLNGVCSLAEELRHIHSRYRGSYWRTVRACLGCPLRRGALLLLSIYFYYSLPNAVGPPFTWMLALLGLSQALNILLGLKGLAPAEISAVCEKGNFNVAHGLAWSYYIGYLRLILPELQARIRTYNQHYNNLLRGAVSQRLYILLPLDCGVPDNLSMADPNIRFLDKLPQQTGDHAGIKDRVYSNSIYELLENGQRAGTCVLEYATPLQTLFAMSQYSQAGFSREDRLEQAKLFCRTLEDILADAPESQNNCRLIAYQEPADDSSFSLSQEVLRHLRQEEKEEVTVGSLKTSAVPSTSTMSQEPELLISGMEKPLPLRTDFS

Row | Compound | pIC50
1 | COC(=O)CCCCCCCCCCCCCCCn1cnc2ncnc(Cl)c21 [Compound 1] | 5.30 to 6.00
2 | COC(=O)CCCCCCCCCCCCCCCn1cnc2nc(Cl)ncc21 [Compound 2] | 4.70 to 5.00
3 | COC(=O)CCCCCCCCCCCCCCCn1cnc2ncncc21 [Compound 3] | < 4.70
4 | COC(=O)CCCCCCCCCCCCCCCn1ccc2nc(Cl)nc(Cl)c21 [Compound 4] | < 4.70
5 | COC(=O)CCCCCCCCCCCCCCCn1cnc2nc(N)nc(Cl)c21 [Compound 5] | 5.00 to 5.30
6 | COC(=O)CCCCCCCCCCn1cnc2nc(Cl)nc(Cl)c21 [Compound 7] | 6.00 to 9.00
7 | CCOC(=O)Cn1cnc2nc(Cl)nc(Cl)c21 [Compound 8] | 6.00 to 9.00
8 | COC(=O)CCCCCCCCCCCCCCCn1cnc2nc(Cl)nc(N)c21 [Compound 9, methyl (6-amino-2-chloro-7H-purin-7-yl)hexadecanoate] | 5.30 to 6.00
9 | O=C(O)CCCCCCCCCCCCCCCn1cnc2nc(Cl)nc(O)c21 [Compound 10, 16-(2-chloro-6-hydroxy-7H-purin-7-yl)hexadecanoic acid] | < 4.70
10 | COC(=O)CCCCCCCCCCCCCCCn1cnc2nc(Cl)nc(O)c21 [Compound 11, methyl 16-(2-chloro-6-hydroxy-7H-purin-7-yl)hexadecanoate] | 4.70 to 5.00
11 | CCOC(=O)CCCCCCCn1cnc2nc(Cl)nc(Cl)c21 [Compound 12] | 6.00 to 9.00
12 | COC(=O)CCCCCCn1cnc2nc(Cl)nc(Cl)c21 [Compound 13] | 6.00 to 9.00
13 | CCCCCCCCCCCCCCC(C(=O)OCc1ccc(OC)cc1)n1cnc2c(Cl)nc(Cl)nc21 (stereo not drawn) [Compound 15, 4-methoxybenzyl 2-(2,6-dichloro-9H-purin-9-yl)hexadecanoate] | < 4.70
14 | CCCCCCCCCCCCCCC(C(=O)O)n1cnc2c(Cl)nc(Cl)nc21 (stereo not drawn) [Compound 16] | 4.70 to 5.00
15 | CCCCCCCCCCCCCCC(C(=O)O)n1ccc2c(Cl)nc(Cl)nc21 (stereo not drawn) [Compound 17, 2-(2,4-dichloro-7H-pyrrolo[2,3-d]pyrimidin-7-yl)hexadecanoic acid] | < 4.70
16 | CCCCCCCCC(C(=O)OCC)n1cnc2c(Cl)nc(Cl)nc21 (stereo not drawn) [Compound 18, ethyl 2-(2,6-dichloro-9H-purin-9-yl)decanoate] | 5.30 to 6.00
17 | CCCCCCCCC(C(=O)O)n1cnc2c(Cl)nc(Cl)nc21 (stereo not drawn) [Compound 19, 2-(2,6-dichloro-9H-purin-9-yl)decanoic acid] | 5.00 to 5.30
18 | COC(=O)CCCCCCCCCCCCCCCn1cnc2c(NCCS(N)(=O)=O)nc(Cl)nc21 [Compound 21] | 4.70 to 5.00
19 | COc1ccc(Cn2cnc3c(NCCCCCC(=O)O)nc(Cl)nc32)cc1 [Compound 22, 6-((2-chloro-9-(4-methoxybenzyl)-9H-purin-6-yl)amino)hexanoic acid] | < 4.70
20 | CNc1nc(Cl)nc2ncn(CCCCCCCCCCCCCCCC(=O)OC)c12 [Compound 23, methyl 16-(2-chloro-6-(methylamino)-7H-purin-7-yl)hexadecanoate] | < 4.70
21 | COC(=O)CCCCCCCCCCCCCCCn1cnc2nc(Cl)nc(N(C)C)c21 [Compound 24, methyl 16-(2-chloro-6-(dimethylamino)-7H-purin-7-yl)hexadecanoate] | 5.30 to 6.00
22 | OCCCCCCCCCCCCCCCCn1cnc2nc(Cl)nc(Cl)c21 [Compound 25, 16-(2,6-dichloro-7H-purin-7-yl)hexadecan-1-ol] | 6.00 to 9.00
23 | CCCCCCCCCCCCCCCCn1cnc2nc(Cl)nc(Cl)c21 [Compound 26, 2,6-dichloro-7-hexadecyl-7H-purine] | 6.00 to 9.00
24 | COC(=O)CCCCCCCCCCCCCCCn1cnc2ncnc(SC)c21 [Compound 27, methyl 16-(6-(methylthio)-7H-purin-7-yl)hexadecanoate] | 5.00 to 5.30
25 | COC(=O)CCCCCCCCCCCCCCCn1cnc2ncnc(S(C)(=O)=O)c21 [Compound 28, methyl 16-(6-(methylsulfonyl)-7H-purin-7-yl)hexadecanoate] | 6.00 to 9.00
26 | COC(=O)CCCCCCCCCCCCCCCn1c(C)nc2nc(Cl)nc(Cl)c21 [Compound 29, methyl 16-(2,6-dichloro-8-methyl-7H-purin-7-yl)hexadecanoate] | 6.00 to 9.00

Row | Compound | pIC50
27 | O=C(O)CCCCCCCCCCCCCCCn1cnc2nc(Cl)nc(Cl)c21 [Compound 30, 16-(2,6-dichloro-7H-purin-7-yl)hexadecanoic acid] | 5.30 to 6.00
28 | COC(=O)CCCCCn1cnc2nc(Cl)nc(Cl)c21 [Compound 31, methyl 6-(2,6-dichloro-7H-purin-7-yl) hexanoate] | 5.30 to 6.00
29 | COC(=O)CCCCn1cnc2nc(Cl)nc(Cl)c21 [Compound 32, methyl 5-(2,6-dichloro-7H-purin-7-yl)pentanoate] | 5.30 to 6.00
30 | CC(=O)OCCCCCn1cnc2nc(Cl)nc(Cl)c21 [Compound 33, 5-(2,6-dichloro-7H-purin-7-yl)pentyl acetate] | 5.30 to 6.00
31 | COC(=O)CCCCCCCCCCCCCCCn1c(C)nc2c(Cl)nc(Cl)nc21 [Compound 34, methyl 16-(2,6-dichloro-8-methyl-9H-purin-9-yl)hexadecanoate] | 4.70 to 5.00
32 | Clc1nc(Cl)c2c(ncn2CCCCCCCCCCCCn2cnc3nc(Cl)nc(Cl)c32)n1 [Compound 35, 1,12-bis(2,6-dichloro-7H-purin-7-yl) dodecane] | 5.30 to 6.00
33 | CCCCCCCCC(C(=O)OCC)n1cnc2nc(Cl)nc(Cl)c21 (stereo not drawn) [Compound 36, ethyl 2-(2,6-dichloro-7H-purin-7-yl) decanoate] | 5.30 to 6.00
34 | COC(=O)CCCn1cnc2nc(Cl)nc(Cl)c21 [Compound 37, methyl 4-(2,6-dichloro-7H-purin-7-yl)butanoate] | 5.00 to 5.30
35 | COC(=O)CCCCCCCCCCCCCCCn1cnc2nc(F)nc(Cl)c21 [Compound 38, methyl 16-(6-chloro-2-fluoro-7H-purin-7-yl)hexadecanoate] | 5.30 to 6.00
36 | COC(=O)CCCCCCCCCCCCCCCn1cnc2nc(Cl)nc(S(C)(=O)=O)c21 [Compound 39, methyl 16-(2-chloro-6-(methylsulfonyl)-7H-purin-7-yl) hexadecanoate] | < 4.70
37 | OCCCCCCCCCCn1cnc2nc(Cl)nc(Cl)c21 [Compound 40, 10-(2,6-dichloro-7H-purin-7-yl)decan-1-ol] | 6.00 to 9.00
38 | COC(=O)CCCCCCCCCCCCCCCn1cnc2nccc(Cl)c21 [Compound 41, methyl 16-(7-chloro-1H-imidazo[4,5-b]pyridin-1-yl) hexadecanoate] | < 4.70
39 | COC(=O)CCCCCCCCCCCCCCCn1cnc2c(Cl)ccnc21 [Compound 42, methyl 16-(7-chloro-3H-imidazo[4,5-b]pyridin-3-yl) hexadecanoate] | < 4.70
40 | COC(=O)CCCCCCCCCCCCCCCn1cnc2ccnc(Cl)c21 [Compound 43] | < 4.70
41 | COC(=O)CCCCCCCCCCCCCCCn1cnc2c(Cl)nccc21 [Compound 44] | < 4.70
42 | OCCCCCCn1cnc2nc(Cl)nc(Cl)c21 [Compound 45, 6-(2,6-dichloro-7H-purin-7-yl)hexan-1-ol] | 5.30 to 6.00
43 | COC(=O)CCCCCCCCCCCCCCCn1cnc2nc(NC(C)=O)nc(Cl)c21 [Compound 46, methyl 16-(2-acetamido-6-chloro-7H-purin-7-yl) hexadecanoate] | < 4.70
44 | COC(=O)CCCCCCCCCCCCCCCn1cnc2c(Cl)nc(NC(C)=O)nc21 [Compound 47, methyl 16-(2-acetamido-6-chloro-9H-purin-9-yl)hexadecanoate] | < 4.70
45 | OCCOCCOCCOCCn1cnc2nc(Cl)nc(Cl)c21 [Compound 48, 2-(2-(2-(2-(2,6-dichloro-7H-purin-7-yl)ethoxy)ethoxy)ethoxy)ethan-1-ol] | 5.30 to 6.00
46 | CC(C)n1cnc2nc(Cl)nc(Cl)c21 [Compound 49, 2,6-dichloro-7-isopropyl-7H-purine] | < 4.70
47 | COC(=O)CCCCCCCCCCCCCCCn1ccc2c(Cl)nc(Cl)nc21 [Compound 50, methyl 16-(2,4-dichloro-7H-pyrrolo[2,3-d]pyrimidin-7-yl)hexadecanoate] | < 4.70
48 | OCCOCCOCCOCCn1cnc2c(Cl)nc(Cl)nc21 [Compound 51, 2-(2-(2-(2-(2,6-dichloro-9H-purin-9-yl)ethoxy)ethoxy)ethoxy)ethan-1-ol] | < 4.70
49 | COC(=O)CCCCCCCCCCCCCCCn1c(O)nc2nc(Cl)nc(Cl)c21 [Compound 52, methyl 16-(2,6-dichloro-8-oxo-8,9-dihydro-7H-purin-7-yl)hexadecanoate] | < 4.70
50 | COC(=O)CCCCCCCCCCCCCCCn1c(O)nc2c(Cl)nc(Cl)nc21 [Compound 53, methyl 16-(2,6-dichloro-8-oxo-7,8-dihydro-9H-purin-9-yl)hexadecanoate] | < 4.70
51 | Clc1nc(Cl)c2c(ncn2C/C=C/Cn2cnc3nc(Cl)nc(Cl)c32)n1 [Compound 54, (E)-1,4-bis(2,6-dichloro-7H-purin-7-yl)but-2-ene] | 5.30 to 6.00
